Data: patent US9439915B2, “Activated nitric oxide donors and methods of making and using thereof” (University of Utah Research Foundation, priority 2008, dated 2016)

Assays:
HL-60 cells [1] = experiment: In vitro cytotoxicity, MTS assay; type: cell-based
Protocol: The in vitro cytotoxicity of JS-K in Pluronic® micelles was studied in this example. JS-K was loaded in F68, P105, or F127 Pluronic® micelles as described above. […] […] Similar control experiments were set-up with equivalent concentrations of each Pluronic® micelle without JS-K. After a 3 day incubation, cell growth was measured using the MTS assay. […] Equivalent empty micelles at equal concentrations (0.08% w/v) had no significant effect on cell growth (not shown).

[2] = Stability in RPMI media with 10% Fetal Bovine Serum; type: in vitro ADME; details: RPMI/10% FBS, 37° C.; micelle 50, free 10 micromolar; average and SEM of 6
Protocol: (§1) The stability of JS-K in different media in vitro was evaluated. […] Concentrations of JS-K in the different media were measured at intervals up to 60 minutes using High Pressure Liquid Chromatography (HPLC). Area Under the Curve (AUC) HPLC measurements were used to determine the half-life (T1/2) and percent recovery of JS-K in the different media.

[3] = Dialysis retention of JS-K (loading in micelles); type: physicochemical; details: 2 hours of dialysis; JS-K levels by HPLC; JS-K to polymer 10% by weight
Protocol: This example illustrates the extent of JS-K loading in micelles. JS-K was loaded in Pluronic® P123 and L121 polymers to form micelles. The proportion of JS-K to Pluronic® polymer in solution was 10% by weight. The JS-K micelle preparations were then dialyzed for 2 hours. A parallel experiment following the same procedures with free JS-K was set up as a control. After 2 hours of dialysis, JS-K levels were measured by HPLC to estimate the percent of JS-K retained.

[4] = Effect on systemic blood pressure (tail cuff); type: in vivo, NOD/SCID and NOD/SCID IL2Rγ^null mice; details: 5 μmol/kg intravenous, awake mice, up to 2 hours
Description: This example illustrates the effect of JS-K in Pluronic® micelles on systemic blood pressure. […] The proportion of JS-K to Pluronic® polymer in solution was 1.53% by weight.
Awake, unanesthetized NOD/SCID and NOD/SCID IL2Rγ^null mice were used for these experiments.

HL-60 cells [5] = experiment: In vivo anti-leukemic activity, HL-60 flank tumors; set-up: species or system NOD/SCID IL2Rγ^null mice; details: 4 μmol/kg intravenously 3 times per week; p=0.01 by F-test
Description: This example illustrates the in vivo anti-leukemic activity of JS-K in Pluronic® micelles. NOD/SCID IL2Rγ^null mice were inoculated with 5×10^6 HL-60 cells in each flank. […] The proportion of JS-K to Pluronic® polymer in solution was 2.0% by weight. Injections were given 3 times per week intravenously. The dose of free and micelle-formulated JS-K was 4 μmol/kg. […] A linear mixed model using SAS PROC MIXED was fit to the data in FIG. 8, using a random effect to account for correlation among measurements within the same animal.

[6] = Stability in pooled human plasma; type: in vitro ADME; details: 37° C., micelle 50, free 10 micromolar, average and SEM of 2
Protocol: as §1

For CCOC(=O)N1CCN(/[N+]([O-])=N/Oc2ccc([N+](=O)[O-])cc2[N+](=O)[O-])CC1 [free JS-K, O^2-(2,4-dinitrophenyl) 1-[(4-ethoxycarbonyl)piperazin-1-yl]diazen-1-ium-1,2-diolate], the “inhibition of leukemia cell growth” value (HL-60 cells [1]; 0.5 μM, 3 day incubation, MTS, JS-K to polymer 4% by weight) was 62%, the IC50 (HL-60 cells [1]; JS-K to polymer 1.97% by weight) was 450 nM and the “percent recovery after 60 minute incubation” value [2] was 10.53+/−1.42%. The “Percent retention of JS-K after dialysis” value [3] was 31%, the “sustained drop in systolic blood pressure” value [4] was “around 20 % of baseline” and the “rate of tumor growth, free vs micelle JS-K (linear mixed model)” value (HL-60 cells [5]) was “significantly higher”. For the same compound, the “percent recovery after 60 minute incubation” value [6] was 39+/−0%.
